Results from patent publication US8883410B2, “Method for determining the stability of organic methyleneamines in the presence of semicarbazide-sensitive amine oxidase” (Sanofi, priority 2007, dated 2014).

Target: T1, human SSAO, full-length, C-terminal 6xHIS tag (Homo sapiens, UniProt Q16853)
T1 construct: expressed in transfected cells; cell lysate
T1 sequence (Q16853 1-763): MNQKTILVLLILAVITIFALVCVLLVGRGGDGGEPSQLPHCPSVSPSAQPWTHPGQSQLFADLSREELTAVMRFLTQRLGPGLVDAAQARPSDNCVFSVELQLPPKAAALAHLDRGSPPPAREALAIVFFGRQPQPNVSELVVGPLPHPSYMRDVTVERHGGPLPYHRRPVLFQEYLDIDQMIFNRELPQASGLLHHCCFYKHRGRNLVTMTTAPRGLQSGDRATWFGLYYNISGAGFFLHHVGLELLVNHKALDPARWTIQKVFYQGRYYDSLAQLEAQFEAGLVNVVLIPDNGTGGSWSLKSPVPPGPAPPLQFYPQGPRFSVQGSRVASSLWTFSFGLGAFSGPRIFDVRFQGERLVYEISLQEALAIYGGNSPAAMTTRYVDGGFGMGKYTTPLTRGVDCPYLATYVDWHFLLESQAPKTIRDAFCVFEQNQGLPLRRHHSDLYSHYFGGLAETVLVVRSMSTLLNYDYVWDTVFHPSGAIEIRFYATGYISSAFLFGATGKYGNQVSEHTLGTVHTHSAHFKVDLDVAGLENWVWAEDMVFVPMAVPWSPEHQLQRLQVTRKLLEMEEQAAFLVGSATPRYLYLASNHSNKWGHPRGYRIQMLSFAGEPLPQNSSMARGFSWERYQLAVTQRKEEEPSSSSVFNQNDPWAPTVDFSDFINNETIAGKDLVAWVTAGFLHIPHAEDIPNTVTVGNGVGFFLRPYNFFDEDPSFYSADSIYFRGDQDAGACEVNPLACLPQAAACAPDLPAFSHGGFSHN
Experiment: Benzylamine stability in lysate of cells expressing full-length SSAO with C-terminal 6xHIS tag, LC/MS/MS
Assay type: in vitro ADME
Description: The expression constructs were prepared by cloning these PCR products into the pCDNA5-FRT-To-DEST vector (Invitrogen, Gateway System™). The forward and reverse DNA sequence of each construct was confirmed including expressed sequences and at least 100 base pairs either side of this. Stable cell lines for Flp-In CHO, Flp-In CHO T-Rex, and Flp-In HEK 293 (Invitrogen, Flp-In system™) were generated using these 6 constructs according to manufacturer's instructions. Cells were co-transfected with the regulatory vector, pOG44, and each of the pCDNA5-FRT-To-DEST constructs using Lipfectamine (Invitrogen) according to manufacturer's instructions. Thus, 18 cell lines were generated: CHO Flp-In full-length SSAO; CHO Flp-In full-length SSAO with C-terminal 6×HIS tag; CHO Flp-In T1 SSAO; CHO Flp-In T1 SSAO with C-terminal 6×HIS tag; CHO Flp-In T2 SSAO; CHO Flp-In T2 SSAO with C-terminal 6×HIS tag; CHO T-Rex Flp-In full-length SSAO; CHO T-Rex Flp-In full-length SSAO with C-terminal 6×HIS tag; CHO T-Rex Flp-In T1 SSAO; CHO T-Rex Flp-In T1 SSAO with C-terminal 6×HIS tag; CHO T-Rex Flp-In T2 SSAO; CHO Flp-In T2 SSAO with C-terminal 6×HIS tag; HEK 293 Flp-In full-length SSAO; HEK 293 Flp-In full-length SSAO with C-terminal 6×HIS tag; HEK 293 Flp-In T1 SSAO; HEK 293 Flp-In T1 SSAO with C-terminal 6×HIS tag; HEK 293 Flp-In T2 SSAO; HEK 293 Flp-In T2 SSAO with C-terminal 6×HIS tag.
Adherent CHO cells were cultured at 37° C., 5% CO2 in media containing Ham's F12, 10% fetal bovine serum, 2 mM L-glutamine, 1% Penicillin/Streptomycin, 300 μM hygromycin B. Adherent HEK 293 cells were cultured at 37° C., 5% CO2 in D-MEM (high glucose), 10% fetal bovine serum, 2 mM L-glutamine, and 200 μM hygromycin B. Stable transformants were identified by loss of zeocin resistance. Once the cells were 80% confluent, SSAO expression was induced by the addition of Tetracycline to 1 μg/mL. Following 18 hours, the cells were harvested using a trypsin treatment of 3 minutes, at room temperature. Cells were washed 3 times in phosphate buffered saline before flash freezing in liquid nitrogen.
For the preparation of cell lysate for activity testing, frozen cell pellets were resuspended in lysate buffer containing 10 mM Tris-HCl (pH 7.2), 150 mM NaCl, 1.5 mM MgCl2, 1% v/v NP-40 and incubated for 15 minutes on ice. Lysate was cleared by centrifugation 800×g for 10 minutes, 4° C. and stored in aliquots at −80° C. until use. Proteins were determined using Pierce Coomassie Protein Reagent, according to manufacturer's instructions.
For each assay run, 1 mL of cell lysate (1.5 mg/mL protein) was mixed with benzylamine to 2000 ng/mL final concentration. At each corresponding time point, […] the incubation mixture was transferred to a microcentrifuge tube (1.7 mL) and mixed with 50 μL of acetonitrile. The tubes were vortex mixed briefly to ensure complete mixing and then centrifuged at 10,000×g for 5 minutes. The supernatant was removed and 50 μL was transferred to an autosampler vial and mixed with 50 μL of water before LC/MS/MS analysis. Benzylamine remaining in the lysate was analyzed with LC/MS/MS method.
LC/MS/MS analysis was performed with a PE Sciex API 3000 mass spectrometer under the following conditions listed below and in Tables 1 and 2: […]

NCc1ccccc1 [Benzylamine]
Benzylamine Remaining (%) (CHO Flp-In T-Rex lysate, 0 min): 100% | Benzylamine Remaining (%) (CHO Flp-In T-Rex lysate, 10 min): 94% | Benzylamine Remaining (%) (CHO Flp-In T-Rex lysate, 2 h): 59% | Benzylamine Remaining (%) (CHO Flp-In lysate, 0 min): 100% | Benzylamine Remaining (%) (CHO Flp-In lysate, 10 min): 101% | Benzylamine Remaining (%) (CHO Flp-In lysate, 2 h): 73% | Benzylamine Remaining (%) (HEK293 lysate, 0 min): 100% | Benzylamine Remaining (%) (HEK293 lysate, 10 min): 105% | Benzylamine Remaining (%) (HEK293 lysate, 2 h): 98%
